Reference: BindingDB's records for patent US12202835 (Beijing Scitech-Mq Pharmaceuticals, 2025)

Columns and labels:
Experiment in all cases: LANCE TR-FRET Assay
[1] = biological target: T1, Tyrosine-protein kinase Mer (Homo sapiens, UniProt Q12866)
T1 sequence (Q12866 whole entry): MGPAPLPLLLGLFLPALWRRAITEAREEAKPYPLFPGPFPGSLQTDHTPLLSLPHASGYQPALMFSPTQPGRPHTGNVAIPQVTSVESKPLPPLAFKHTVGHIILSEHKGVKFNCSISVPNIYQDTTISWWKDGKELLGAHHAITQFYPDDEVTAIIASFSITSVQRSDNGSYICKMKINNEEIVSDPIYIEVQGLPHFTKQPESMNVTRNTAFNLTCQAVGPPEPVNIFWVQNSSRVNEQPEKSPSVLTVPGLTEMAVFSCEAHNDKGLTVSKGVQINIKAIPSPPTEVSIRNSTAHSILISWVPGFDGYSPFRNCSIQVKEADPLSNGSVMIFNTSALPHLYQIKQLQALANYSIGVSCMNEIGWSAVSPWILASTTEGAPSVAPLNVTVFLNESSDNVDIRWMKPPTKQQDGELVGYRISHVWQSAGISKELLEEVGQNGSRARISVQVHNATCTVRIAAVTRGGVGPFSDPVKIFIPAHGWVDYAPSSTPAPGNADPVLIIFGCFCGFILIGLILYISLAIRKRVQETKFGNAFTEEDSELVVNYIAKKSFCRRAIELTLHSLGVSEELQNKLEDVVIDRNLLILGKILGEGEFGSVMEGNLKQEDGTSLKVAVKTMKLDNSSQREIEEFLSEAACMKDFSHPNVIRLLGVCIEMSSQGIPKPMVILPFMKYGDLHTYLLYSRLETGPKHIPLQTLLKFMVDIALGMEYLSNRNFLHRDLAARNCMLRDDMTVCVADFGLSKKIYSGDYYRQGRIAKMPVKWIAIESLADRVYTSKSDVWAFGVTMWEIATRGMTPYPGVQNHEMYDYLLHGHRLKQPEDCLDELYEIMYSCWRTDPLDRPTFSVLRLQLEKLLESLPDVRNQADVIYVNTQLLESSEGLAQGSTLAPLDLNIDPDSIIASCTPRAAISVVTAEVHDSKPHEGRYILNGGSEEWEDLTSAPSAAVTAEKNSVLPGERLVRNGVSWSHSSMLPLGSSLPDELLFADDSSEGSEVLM
Experimental: MER Kinase: The assay of small molecular compounds for inhibiting the activity of MER kinase is based on the LANCE TR-FRET technology of Perkin Elmer Inc., and the assay method is as follows:1. Dilution of compounds: a total of 11 concentrations were obtained using a 3-fold gradient dilution from the highest concentration of 2500 nM (the maximum final concentration of the drug used in this assay was 2500 nM, and the minimum final concentration was 0.042 nM).2. 2.5 μL of the gradient-diluted compounds were taken with a transfer pipette to a 384-well plate.3. Addition of enzyme: 5 μL of 2×MER kinase solution (with a concentration of 1 nM) was taken with a transfer pipette to the corresponding reaction well of the 384-well plate, mixed well and pre-reacted at room temperature for 5 minutes.4. 2.5 μL 4× ULight-labeled Ploy GT (with a concentration of 200 nM)/ATP (with a concentration of 20 μM) mixture was taken with a transfer pipette to the corresponding reaction well of the 384-well plate.5. Negative control: 2.5 μL/well 4× substrate/ATP mixture and 7.5 μL 1× Kinase Assay Buffer were added to the wells of the 384-well plate.Positive control: 2.5 μL/well 4× substrate/ATP mixture, 2.5 μL/well 1× Kinase Assay Buffer containing 4% DMSO, and 5 μL/well 2×MER kinase solution were added to the 384-well plate. The final concentration of DMSO in the reaction system was 1%.6. The mixture was mixed well and then centrifuged and reacted at room temperature in dark for 60 min.7. Termination of the enzymatic reaction: 5 μL of 4× stop solution was taken with a transfer pipette to the wells of the 384-well plate, mixed and then centrifuged, and reacted at room temperature for 5 min.8. Development of the reaction: 5 μL of 4× detection solution was taken with a transfer pipette to the wells of the 384-well plate for color development, and the mixture was mixed and then centrifuged and reacted at room temperature for 60 min.9. The 384-well plate was placed into the Envision plate reader and the signal was detected using the appropriate program.10. Analysis and processing of the raw data:The drug concentrations and the corresponding inhibition rates were input into GraphPad Prism5 for calculation, and the inhibition rate of the compounds were calculated as follows: inhibition rate (%)=(reading of positive well−reading of experimental well)/(reading of positive control well−reading of negative control well)×100%.

[2] = biological target: High affinity nerve growth factor receptor (Homo sapiens, UniProt P04629)
High affinity nerve growth factor receptor, sequence (P04629 whole entry): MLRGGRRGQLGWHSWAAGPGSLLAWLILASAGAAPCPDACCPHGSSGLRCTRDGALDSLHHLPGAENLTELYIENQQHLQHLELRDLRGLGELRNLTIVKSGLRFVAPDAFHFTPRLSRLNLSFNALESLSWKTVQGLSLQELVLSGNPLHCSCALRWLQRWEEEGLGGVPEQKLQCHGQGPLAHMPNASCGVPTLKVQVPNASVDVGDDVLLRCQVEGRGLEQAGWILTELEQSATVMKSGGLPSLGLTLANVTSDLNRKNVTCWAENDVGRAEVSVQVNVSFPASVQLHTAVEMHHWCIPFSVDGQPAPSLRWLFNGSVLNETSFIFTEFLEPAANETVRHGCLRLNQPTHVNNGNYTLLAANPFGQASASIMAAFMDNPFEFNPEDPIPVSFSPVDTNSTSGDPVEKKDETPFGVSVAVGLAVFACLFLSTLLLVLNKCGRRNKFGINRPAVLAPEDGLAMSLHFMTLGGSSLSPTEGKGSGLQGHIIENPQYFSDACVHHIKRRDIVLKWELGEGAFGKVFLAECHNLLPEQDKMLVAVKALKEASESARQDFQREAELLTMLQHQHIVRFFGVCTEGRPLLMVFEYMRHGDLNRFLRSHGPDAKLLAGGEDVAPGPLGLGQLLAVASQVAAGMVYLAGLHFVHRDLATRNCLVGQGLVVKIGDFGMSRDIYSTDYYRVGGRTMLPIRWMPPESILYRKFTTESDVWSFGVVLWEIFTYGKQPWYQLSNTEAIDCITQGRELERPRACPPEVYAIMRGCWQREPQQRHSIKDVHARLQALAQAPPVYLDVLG
Experimental: TRKA Kinase: The assay of small molecular compounds for inhibiting the activity of TRKA kinase is based on the LANCE TR-FRET technology of Perkin Elmer Inc., and the assay method is as follows:1. […] 2.5 μL of the gradient-diluted compounds were taken with a transfer pipette to a 384-well plate.3. Addition of enzyme: 5 μL of 2×TRKA kinase solution (with a concentration of 2 nM) was taken with a transfer pipette to the corresponding reaction well of the 384-well plate, mixed well and pre-reacted at room temperature for 5 minutes.4. 2.5 μL 4× Ultra ULight-labeled TK Peptide (with a concentration of 400 nM)/ATP (with a concentration of 40 μM) mixture was taken with a transfer pipette to the corresponding reaction well of the 384-well plate.5. Negative control: 2.5 μL/well 4× substrate/ATP mixture and 7.5 μL 1× Kinase Assay Buffer were added to the wells of the 384-well plate.Positive control: 2.5 μL/well 4× substrate/ATP mixture, 2.5 μL/well 1× Kinase Assay Buffer containing 4% DMSO, and 5 μL/well 2×TRKA kinase solution were added to the 384-well plate. The final concentration of DMSO in the reaction system was 1%.6. The mixture was mixed well and then centrifuged and reacted at room temperature in dark for 60 min.7. Termination of the enzymatic reaction: 5 μL of 4× stop solution was taken with a transfer pipette to the wells of the 384-well plate, mixed and then centrifuged, and reacted at room temperature for 5 min.8. Development of the reaction: 5 μL of 4× detection solution was taken with a transfer pipette to the wells of the 384-well plate for color development, and the mixture was mixed and then centrifuged and reacted at room temperature for 60 min.9. The 384-well plate was placed into the Envision plate reader and the signal was detected using the appropriate program.10.

[3] = biological target: Hepatocyte growth factor receptor (Homo sapiens, UniProt P08581)
Hepatocyte growth factor receptor, sequence (P08581 whole entry): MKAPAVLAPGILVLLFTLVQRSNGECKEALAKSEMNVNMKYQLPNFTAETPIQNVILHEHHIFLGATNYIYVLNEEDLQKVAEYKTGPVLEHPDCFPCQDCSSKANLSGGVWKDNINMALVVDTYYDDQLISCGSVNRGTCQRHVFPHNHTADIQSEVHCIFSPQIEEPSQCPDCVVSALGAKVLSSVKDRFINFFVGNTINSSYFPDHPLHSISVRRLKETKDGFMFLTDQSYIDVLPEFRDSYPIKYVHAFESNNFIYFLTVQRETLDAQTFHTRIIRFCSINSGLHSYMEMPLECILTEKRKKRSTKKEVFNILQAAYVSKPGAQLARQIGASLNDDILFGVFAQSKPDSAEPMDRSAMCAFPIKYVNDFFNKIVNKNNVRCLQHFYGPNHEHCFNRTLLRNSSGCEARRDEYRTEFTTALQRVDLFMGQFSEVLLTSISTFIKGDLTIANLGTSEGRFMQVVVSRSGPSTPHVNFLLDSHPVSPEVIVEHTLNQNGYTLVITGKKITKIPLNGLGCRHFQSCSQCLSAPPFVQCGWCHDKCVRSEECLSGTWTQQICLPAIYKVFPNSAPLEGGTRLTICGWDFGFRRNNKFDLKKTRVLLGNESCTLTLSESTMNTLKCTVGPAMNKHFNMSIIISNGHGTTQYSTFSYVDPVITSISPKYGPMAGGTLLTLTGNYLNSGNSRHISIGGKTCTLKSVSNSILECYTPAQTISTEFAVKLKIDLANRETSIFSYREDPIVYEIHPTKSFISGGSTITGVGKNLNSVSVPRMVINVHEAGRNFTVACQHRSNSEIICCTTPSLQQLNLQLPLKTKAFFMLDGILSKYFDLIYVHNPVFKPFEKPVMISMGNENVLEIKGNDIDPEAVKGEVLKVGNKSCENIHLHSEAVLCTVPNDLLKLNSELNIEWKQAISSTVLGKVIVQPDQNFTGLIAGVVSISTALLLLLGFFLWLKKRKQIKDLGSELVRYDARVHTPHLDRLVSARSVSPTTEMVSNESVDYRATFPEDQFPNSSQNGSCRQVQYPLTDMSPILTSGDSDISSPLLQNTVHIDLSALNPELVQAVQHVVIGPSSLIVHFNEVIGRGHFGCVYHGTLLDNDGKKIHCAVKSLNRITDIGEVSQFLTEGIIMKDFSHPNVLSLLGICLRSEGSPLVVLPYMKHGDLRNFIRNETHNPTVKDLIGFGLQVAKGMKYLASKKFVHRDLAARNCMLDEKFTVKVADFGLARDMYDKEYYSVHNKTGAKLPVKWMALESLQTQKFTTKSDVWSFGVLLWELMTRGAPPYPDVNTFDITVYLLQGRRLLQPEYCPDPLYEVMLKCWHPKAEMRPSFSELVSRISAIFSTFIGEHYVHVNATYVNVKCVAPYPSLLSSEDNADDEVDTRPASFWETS
Experimental: c-MET Kinase: The assay is based on the LANCE TR-FRET technology of Perkin Elmer Inc., and the assay method is as follows:1. Dilution of compounds: a total of 11 concentrations were obtained using a 3-fold gradient dilution from the highest concentration of 2500 nM (the maximum final concentration of the drug used in this assay was 2500 nM, and the minimum final concentration was 0.042 nM).2. 2.5 μL of the gradient-diluted compounds were taken with a transfer pipette to a 384-well plate.3. Addition of enzyme: 5 μL of 2×c-MET kinase solution (with a concentration of 2 nM) was taken with a transfer pipette to the corresponding reaction well of the 384-well plate, mixed well and pre-reacted at room temperature for 5 minutes.4. 2.5 μL 4× Ultra ULight™-JAK-1 (Tyr1023) Peptide (with a concentration of 400 nM)/ATP (with a concentration of 40 μM) mixture was taken with a transfer pipette to the corresponding reaction well of the 384-well plate.5. Negative control: 2.5 μL/well 4× substrate/ATP mixture and 7.5 μL 1× Kinase Assay Buffer were added to the wells of the 384-well plate.6. Positive control: 2.5 μL/well 4× substrate/ATP mixture, 2.5 μL/well 1× Kinase Assay Buffer containing 16% DMSO, and 5 μL/well 2× c-MET kinase solution were added to the 384-well plate. The final concentration of DMSO in the reaction system was 4%.7. The mixture was mixed well and then centrifuged and reacted at room temperature in dark for 60 min.8. Termination of the enzymatic reaction: 5 μL of 4× stop solution was taken with a transfer pipette to the wells of the 384-well plate, mixed and then centrifuged, and reacted at room temperature for 5 min.9. Development of the reaction: 5 μL of 4× detection solution was taken with a transfer pipette to the wells of the 384-well plate for color development, and the mixture was mixed and then centrifuged and reacted at room temperature for 60 min.10. The 384-well plate was placed into the Envision plate reader and the signal was detected using the appropriate program.11. Analysis and processing of the raw data:12. […]

[4] = biological target: Vascular endothelial growth factor receptor 2 (Homo sapiens, UniProt P35968)
Vascular endothelial growth factor receptor 2, sequence (P35968 whole entry): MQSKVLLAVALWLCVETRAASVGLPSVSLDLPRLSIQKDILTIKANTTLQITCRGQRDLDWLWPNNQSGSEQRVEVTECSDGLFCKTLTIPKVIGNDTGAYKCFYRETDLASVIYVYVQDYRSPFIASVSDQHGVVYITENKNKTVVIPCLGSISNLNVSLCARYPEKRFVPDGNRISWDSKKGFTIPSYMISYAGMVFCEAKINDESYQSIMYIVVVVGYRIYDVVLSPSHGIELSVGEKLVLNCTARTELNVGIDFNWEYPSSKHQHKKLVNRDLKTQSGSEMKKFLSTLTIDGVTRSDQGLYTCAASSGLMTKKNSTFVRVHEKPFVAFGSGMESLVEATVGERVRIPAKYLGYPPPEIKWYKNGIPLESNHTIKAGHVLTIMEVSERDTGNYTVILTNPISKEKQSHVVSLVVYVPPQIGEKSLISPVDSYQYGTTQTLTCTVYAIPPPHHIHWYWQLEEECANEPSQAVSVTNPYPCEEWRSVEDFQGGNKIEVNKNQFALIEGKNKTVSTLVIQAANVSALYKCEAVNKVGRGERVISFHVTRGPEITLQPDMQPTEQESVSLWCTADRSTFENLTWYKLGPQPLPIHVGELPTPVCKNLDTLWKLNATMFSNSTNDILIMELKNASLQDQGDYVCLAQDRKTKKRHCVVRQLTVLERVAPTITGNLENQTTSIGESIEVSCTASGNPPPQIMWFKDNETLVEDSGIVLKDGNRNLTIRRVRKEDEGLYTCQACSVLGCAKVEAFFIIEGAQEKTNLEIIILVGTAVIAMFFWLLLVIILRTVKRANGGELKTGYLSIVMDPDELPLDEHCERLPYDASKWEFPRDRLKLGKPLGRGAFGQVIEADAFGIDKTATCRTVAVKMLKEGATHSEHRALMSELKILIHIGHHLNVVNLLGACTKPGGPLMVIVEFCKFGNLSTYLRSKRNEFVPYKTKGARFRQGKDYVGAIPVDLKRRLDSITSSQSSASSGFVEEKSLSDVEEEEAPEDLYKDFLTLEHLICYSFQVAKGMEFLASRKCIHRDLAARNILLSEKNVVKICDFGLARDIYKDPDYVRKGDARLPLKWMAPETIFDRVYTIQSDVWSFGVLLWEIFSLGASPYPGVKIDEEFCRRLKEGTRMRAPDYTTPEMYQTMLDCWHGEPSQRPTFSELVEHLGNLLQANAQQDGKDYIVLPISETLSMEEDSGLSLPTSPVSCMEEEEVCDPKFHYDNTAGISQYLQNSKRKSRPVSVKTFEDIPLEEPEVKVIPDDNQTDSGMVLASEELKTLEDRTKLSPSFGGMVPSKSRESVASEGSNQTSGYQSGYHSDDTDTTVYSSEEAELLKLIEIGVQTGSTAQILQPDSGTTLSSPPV
Experimental: VEGFR-2 Kinase: The assay is based on the LANCE TR-FRET technology of Perkin Elmer Inc., and the assay method is as follows:1. Dilution of compounds: a total of 11 concentrations were obtained using a 3-fold gradient dilution from the highest concentration of 2500 nM (the maximum final concentration of the drug used in this assay was 2500 nM, and the minimum final concentration was 0.042 nM).2. 2.5 μL of the gradient-diluted compounds were taken with a transfer pipette to a 384-well plate.3. Addition of enzyme: 5 μL of 2×VEGFR2 kinase solution (with a concentration of 0.5 nM) was taken with a transfer pipette to the corresponding reaction well of the 384-well plate, mixed well and pre-reacted at room temperature for 30 minutes.4. 2.5 μL 4× Ultra ULight™-JAK-1 (Tyr1023) Peptide (with a concentration of 200 nM)/ATP (with a concentration of 40 μM) mixture was taken with a transfer pipette to the corresponding reaction well of the 384-well plate.5. Negative control: 2.5 μL/well 4× substrate/ATP mixture and 7.5 μL 1× Kinase Assay Buffer were added to the wells of the 384-well plate.6. Positive control: 2.5 μL/well 4× substrate/ATP mixture, 2.5 μL/well 1× Kinase Assay Buffer containing 16% DMSO, and 5 μL/well 2×VEGFR-2 kinase solution were added to the 384-well plate. […] The 384-well plate was placed into the Envision plate reader and the signal was detected using the appropriate program.11. […]

Measured: IC50

CN(C)CCCOc1cc2nccc(Oc3ccc(NC(=O)c4cn(C)c(=O)n(-c5ccc(F)cc5)c4=O)cc3F)c2c2c1OCCO2 [US12202835, Example 86]
< 50 nM: [1] | [2] | [3]

CC(C)n1cc(C(=O)Nc2ccc(Oc3ccnc4cc(OCCCCCCN(C)C)c5c(c34)OCCO5)c(F)c2)c(=O)n(-c2ccc(F)cc2)c1=O [US12202835, Example 85]
< 50 nM: [1] | [2]

CCOc1ccn(-c2ccc(F)cc2)c(=O)c1C(=O)Nc1ccc(Oc2ccnc3cc(OCCCN(C)C)c4c(c23)OCCO4)c(F)c1 [US12202835, Example 61]
< 50 nM: all assays above

CCOc1ccn(-c2ccc(F)cc2)c(=O)c1C(=O)Nc1ccc(Oc2ccnc3cc(OCCCCCCN(C)C)c4c(c23)OCCO4)c(F)c1 [US12202835, Example 60]
< 50 nM: all assays above
